Test results taken from patent US20220380306A1, “ASTAXANTHIN ESTERS AND METHODS OF USE THEREOF” (CARDAX,INC., priority 2019, published 2022).

Tests used:
[1] = Hydrolysis of ADMG compared to ADSa in solution or under basic conditions (NaHCO3 / Na2CO3); assay type: physicochemical; conditions: 16 hours
Description: The mixture was stirred at room temperature or 50° C. The reaction was monitored by HPLC and LCMS after 16 hours. […] “Byproduct” indicates a material that was formed other than the diester, monoester, or free astaxanthin.

[2] = Hydrolysis of ADMG compared to ADSa under basic conditions with KOH; assay type: physicochemical; conditions: KOH 55.6 molar equivalents, room temperature
Description: KOH was added at 55.6 molar equivalents as a solution in 81:9:10 methanol:dichloromethane:water at room temperature. The solution was analyzed using HPLC over various time points for starting diester (A), hydrolyzed monoester (B) and free astaxanthin (C). Byproduct indicates an impurity formed that is none of A, B, or C.

[3] = methotrexate 15-20 mg/week vs. placebo; cited from earlier work
[4] = 20 mg/D rosuvastatin vs. placebo; patients who achieved a reduction in CRP<2.0; cited from earlier work
IL-1β = IL-1β (Homo sapiens, UniProt P01584); conditions: cited from earlier work
[5] = methanol + saturated aq Na2CO3, rt
[6] = methanol + saturated aq NaHCO3, 50° C.
[7] = methanol + saturated aq NaHCO3, rt
[8] = subjects with a reduction of CRP<2.0 mg/L (regardless of dose)

## CC1=C(/C=C/C(C)=C/C=C/C(C)=C/C=C/C=C(C)/C=C/C=C(C)/C=C/C2=C(C)C(=O)[C@@H](OC(=O)CN(C)C)CC2(C)C)C(C)(C)C[C@H](OC(=O)CN(C)C)C1=O [ADMG, Astaxanthin Dimethyl Glycinate Diester]
[1]; methanol + saturated aq Na2CO3, 50° C.
  C (free astaxanthin): 92% C
[1]; [5]
  B (hydrolyzed monoester): 5% B
  C (free astaxanthin): 90% C
[1]; [6]
  A (starting diester): 33% A
  B (hydrolyzed monoester): 50% B
  C (free astaxanthin): 23% C
[1]; [7]
  A (starting diester): 64% A
  B (hydrolyzed monoester): 28% B
  C (free astaxanthin): 2% C
[1]; methanol, no base, rt
  A (starting diester): 75% A
  Byproduct: 21% byproduct
[2]; time 0 hr
  A (starting diester): 93.7%
  B (hydrolyzed monoester): 0.1%
  Byproduct: 0%
  C (free astaxanthin): 0%
[2]; time 0.07 hr
  A (starting diester): 86.4%
  B (hydrolyzed monoester): 7.3%
  Byproduct: 0%
  C (free astaxanthin): 0.1%
[2]; time 0.65 hr
  A (starting diester): 36.1%
  B (hydrolyzed monoester): 44.9%
  Byproduct: 0.1%
  C (free astaxanthin): 13.2%
[2]; time 1.23 hr
  A (starting diester): 14.4%
  B (hydrolyzed monoester): 44.6%
  Byproduct: 0.8%
  C (free astaxanthin): 34.6%
[2]; time 1.80 hr
  A (starting diester): 5.5%
  B (hydrolyzed monoester): 34.2%
  Byproduct: 1.4%
  C (free astaxanthin): 53.0%
[2]; time 2.38 hr
  A (starting diester): 2.0%
  B (hydrolyzed monoester): 23.4%
  Byproduct: 2.0%
  C (free astaxanthin): 66.6%
[2]; time 2.97 hr
  A (starting diester): 0.7%
  B (hydrolyzed monoester): 14.9%
  Byproduct: 2.7%
  C (free astaxanthin): 75.4%
[2]; time 3.55 hr
  A (starting diester): 0.2%
  B (hydrolyzed monoester): 9.2%
  Byproduct: 3.4%
  C (free astaxanthin): 80.7%

## CN(Cc1cnc2nc(N)nc(N)c2n1)c1ccc(C(=O)N[C@@H](CCC(=O)O)C(=O)O)cc1 [methotrexate]
[3]
  cardiovascular events compared to placebo: did not result in fewer cardiovascular events
  levels of IL-1β, IL-6, or CRP: did not reduce

## CC(C)c1nc(N(C)S(C)(=O)=O)nc(-c2ccc(F)cc2)c1/C=C/[C@@H](O)C[C@@H](O)CC(=O)O [rosuvastatin]
[4]
  reduction in vascular events: 62%

## Astaxanthin Sarcosine Diester [ADSa, reference compound]
[1]; methanol, no base, rt
  A (starting diester): 72% A
  Byproduct: 16% byproduct
[2]; time 0 hr
  A (starting diester): 91.4%
  B (hydrolyzed monoester): 0.5%
  Byproduct: 0%
  C (free astaxanthin): 0%
[2]; time 0.05 hr
  A (starting diester): 24.0%
  B (hydrolyzed monoester): 46.8%
  Byproduct: 1.3%
  C (free astaxanthin): 22.2%
[2]; time 0.62 hr
  A (starting diester): 0%
  B (hydrolyzed monoester): 0.5%
  Byproduct: 3.8%
  C (free astaxanthin): 90.8%

## canakinumab: monoclonal antibody that targets IL-1β
IL-1β; active treatment groups vs. placebo
  deaths from infection (mostly tuberculosis): more deaths from infection
IL-1β; patients with active treatment
  CRP and IL-6 levels: reduction
  lipids: no change
IL-1β; [8]
  reduction in cardiovascular death and all-cause mortality: 31%
  reduction in the primary end point (composite of myocardial infarction, stroke, or cardiovascular death): 25%
